The values below are quoted from earlier work in patent publication US11066478B2, “Intravesical therapy for bladder cancer” (PHOTOCURE ASA, priority 2015, dated 2021).

One data set relates to NMIBC. Conditions: patients with NMIBC.
The next data set deals with bladder cancer. Conditions: patients who underwent cystectomy for bladder cancer, HAL-guided TUR prior to cystectomy.

Regarding `CCCCCCOC(=O)CCC(=O)CN` [HAL, n-hexyl 5-amino-4-oxo-pentanoate], in the data set with NMIBC (HAL-guided TUR), the “rate of residual tumor after TUR” value was “reduced the rate of residual tumor”. For the same molecule, the “recurrence free survival (RFS) rates” value with NMIBC (HAL-guided TUR compared to white light TUR alone) is given as “superior recurrence free survival (RFS) rates”. In addition, in the data set with NMIBC (HAL-guided cystoscopy and TUR versus white light alone), the “detection of papillary tumors and flat carcinoma-in-situ (CIS) lesions” value was “increased detection”. Further, the “3-year overall survival (OS)” value in the data set on bladder cancer (comparison 56.6%) is recorded as 65.0%. For the same molecule, in the data set with bladder cancer (white light TUR alone 58.2%), the “3-year recurrence-free survival (RFS)” value is reported as 69.8%.
